Results reported in US12226412B2, “Heteroaryl-ketone fused azadecalin glucocorticoid receptor modulators” (Corcept Therapeutics, Inc., priority 2012, dated 2025).
Like-named read-outs stand apart in the source and are kept apart here.

Columns and labels:
human recombinant GR = biological target: T1, human recombinant GR (Homo sapiens, UniProt P04150); experiment: Human glucocorticoid receptor (GR) fluorescence polarisation (FP) binding assay
T1 construct: purchased PanVera P2812
T1 sequence (P04150 1-777): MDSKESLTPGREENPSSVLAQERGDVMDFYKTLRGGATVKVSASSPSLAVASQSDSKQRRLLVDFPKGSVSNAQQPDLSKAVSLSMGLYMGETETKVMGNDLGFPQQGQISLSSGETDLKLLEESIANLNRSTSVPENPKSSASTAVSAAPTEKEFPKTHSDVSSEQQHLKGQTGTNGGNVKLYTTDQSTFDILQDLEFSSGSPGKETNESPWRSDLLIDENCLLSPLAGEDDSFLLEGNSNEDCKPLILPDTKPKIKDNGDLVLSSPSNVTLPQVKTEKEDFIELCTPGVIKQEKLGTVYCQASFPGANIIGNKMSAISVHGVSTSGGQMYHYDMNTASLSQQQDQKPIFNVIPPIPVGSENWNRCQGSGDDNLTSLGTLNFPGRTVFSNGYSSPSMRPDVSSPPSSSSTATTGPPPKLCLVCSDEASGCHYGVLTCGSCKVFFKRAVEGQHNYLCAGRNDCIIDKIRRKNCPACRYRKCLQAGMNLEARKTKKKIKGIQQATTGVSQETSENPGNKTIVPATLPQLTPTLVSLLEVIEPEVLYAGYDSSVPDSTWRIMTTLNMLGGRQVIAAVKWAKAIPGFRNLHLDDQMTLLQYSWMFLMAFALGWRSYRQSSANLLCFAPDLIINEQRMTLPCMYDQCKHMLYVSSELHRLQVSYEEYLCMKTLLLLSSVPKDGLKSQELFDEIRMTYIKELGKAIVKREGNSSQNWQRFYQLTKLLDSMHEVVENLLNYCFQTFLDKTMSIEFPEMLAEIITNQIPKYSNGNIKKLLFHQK
In short: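 Competition fluorescence polarisation: 0.5 nM GS Red labelled glucocorticoid and 1 nM recombinant human GR with 8-point half-log compound series, 1% DMSO, 4 h room temperature, potassium phosphate pH 7.4 buffer with molybdate, EDTA, DTT. Affinity derived from the drop in polarisation, normalised to blank wells.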

[1] = tested on: induction of TAT by dexamethasone in HepG2 cells; experiment: HepG2 tyrosine aminotransferase (TAT) assay; type: cell-based, human
[2] = human recombinant GR, fluorescence polarisation binding assay, read-out: GR binding
[3] = HepG2 cells, challenge of 100 nM dexamethasone, Ki from IC50 by Cheng and Prusoff equation

SMILES | Ki (human recombinant GR; [2]) [nM] | Ki [1, 3] [nM] | Ki (human recombinant GR) [nM] | Ki [1] [nM]
Cc1ccc(S(=O)(=O)N2CCC3=Cc4c(cnn4-c4ccc(F)cc4)C[C@]3(C(=O)c3ccccn3)C2)cc1F [Example 2J, (R)-(6-((3-fluoro-4-methylphenyl)sulfonyl)-1-(4-fluorophenyl)-4,4a,5,6,7,8-hexahydro-1H-pyrazolo[3,4-g]isoquinolin-4a-yl)(pyridin-2-yl)methanone] | < 0.5 | < 20 | – | –
O=C(c1cccs1)[C@]12Cc3cnn(-c4ccc(F)cc4)c3C=C1CCN(S(=O)(=O)c1ccc(C(F)(F)F)cc1)C2 [Example 1H, (R)-(1-(4-fluorophenyl)-6-((4-(trifluoromethyl)phenyl)sulfonyl)-4,4a,5,6,7,8-hexahydro-1H-pyrazolo[3,4-g]isoquinolin-4a-yl)(thiophen-2-yl)methanone] | – | – | < 0.5 | 20 to 100
Cc1ccnc(C(=O)[C@]23Cc4cnn(-c5ccc(F)cc5)c4C=C2CCN(S(=O)(=O)c2cc(C(F)(F)F)ccn2)C3)c1 [Example 11BC, (R)-(1-(4-fluorophenyl)-6-((4-(trifluoromethyl)pyridin-2-yl)sulfonyl)-4,4a,5,6,7,8-hexahydro-1H-pyrazolo[3,4-g]isoquinolin-4a-yl)(4-methylpyridin-2-yl)methanone] | < 0.5 | < 20 | – | –
Cc1ccnc(C(=O)[C@]23Cc4cnn(-c5ccc(F)cc5)c4C=C2CCN(S(=O)(=O)c2cn(C)nc2C)C3)c1 [Example 11AQ, (R)-(6-((1,3-dimethyl-1H-pyrazol-4-yl)sulfonyl)-1-(4-fluorophenyl)-4,4a,5,6,7,8-hexahydro-1H-pyrazolo[3,4-g]isoquinolin-4a-yl)(4-methylpyridin-2-yl)methanone] | < 0.5 | 20 to 100 | – | –
O=C(c1nccs1)[C@]12Cc3cnn(-c4ccc(F)cc4)c3C=C1CCN(S(=O)(=O)c1cccc(N3CCCC3)c1)C2 [Example 6A, (R)-(1-(4-fluorophenyl)-6-((3-(pyrrolidin-1-yl)phenyl)sulfonyl)-4,4a,5,6,7,8-hexahydro-1H-pyrazolo[3,4-g]isoquinolin-4a-yl)(thiazol-2-yl)methanone] | < 0.5 | ≥ 100 | – | –
O=C(c1nccs1)[C@]12Cc3cnn(-c4ccc(F)cc4)c3C=C1CCN(S(=O)(=O)c1cncc(N3CCCCC3)c1)C2 [Example 7, (R)-(1-(4-fluorophenyl)-6-((5-(piperidin-1-yl)pyridin-3-yl)sulfonyl)-4,4a,5,6,7,8-hexahydro-1H-pyrazolo[3,4-g]isoquinolin-4a-yl)(thiazol-2-yl)methanone] | < 0.5 | 20 to 100 | – | –
O=C(c1ccccn1)[C@]12Cc3cnn(-c4ccc(F)cc4)c3C=C1CCN(S(=O)(=O)c1cccc(C(F)(F)F)c1)C2 [Example 5C, (R)-(1-(4-fluorophenyl)-6-((3-(trifluoromethyl)phenyl)sulfonyl)-4,4a,5,6,7,8-hexahydro-1H-pyrazolo[3,4-g]isoquinolin-4a-yl)(pyridin-2-yl)methanone] | – | – | < 0.5 | < 20
CCc1ccnc(C(=O)[C@]23Cc4cnn(-c5ccc(F)cc5)c4C=C2CCN(S(=O)(=O)c2cc(F)c(F)c(F)c2)C3)c1 [Example 1L, (R)-(4-ethylpyridin-2-yl)(1-(4-fluorophenyl)-6-((3,4,5-trifluorophenyl)sulfonyl)-4,4a,5,6,7,8-hexahydro-1H-pyrazolo[3,4-g]isoquinolin-4a-yl)methanone] | < 0.5 | < 20 | – | –
Cc1nnc(C(=O)[C@]23Cc4cnn(-c5ccc(F)cc5)c4C=C2CCN(S(=O)(=O)c2ccc(C(F)(F)F)cc2)C3)o1 [Example 1D, (R)-(1-(4-fluorophenyl)-6-((4-(trifluoromethyl)phenyl)sulfonyl)-4,4a,5,6,7,8-hexahydro-1H-pyrazolo[3,4-g]isoquinolin-4a-yl)(5-methyl-1,3,4-oxadiazol-2-yl)methanone] | > 1 | ≥ 100 | – | –
Cc1ccnc(C(=O)[C@]23Cc4cnn(-c5ccc(F)cc5)c4C=C2CCN(S(=O)(=O)c2cn[nH]c2C)C3)c1 [Example 11BD, (R)-(1-(4-fluorophenyl)-6-((5-methyl-1H-pyrazol-4-yl)sulfonyl)-4,4a,5,6,7,8-hexahydro-1H-pyrazolo[3,4-g]isoquinolin-4a-yl)(4-methylpyridin-2-yl)methanone] | < 0.5 | 20 to 100 | – | –
O=C(c1ccccn1)[C@]12Cc3cnn(-c4ccc(F)cc4)c3C=C1CCN(S(=O)(=O)c1cncc(F)c1)C2 [Example 5F, (R)-(1-(4-fluorophenyl)-6-((5-fluoropyridin-3-yl)sulfonyl)-4,4a,5,6,7,8-hexahydro-1H-pyrazolo[3,4-g]isoquinolin-4a-yl)(pyridin-2-yl)methanone] | < 0.5 | 20 to 100 | – | –
O=C(c1cscn1)[C@]12Cc3cnn(-c4ccc(F)cc4)c3C=C1CCN(S(=O)(=O)c1ccc(F)c(F)c1)C2 [Example 11BU, (R)-(6-((3,4-difluorophenyl)sulfonyl)-1-(4-fluorophenyl)-4,4a,5,6,7,8-hexahydro-1H-pyrazolo[3,4-g]isoquinolin-4a-yl)(thiazol-4-yl)methanone] | > 1 | 20 to 100 | – | –
Cc1ccnc(C(=O)[C@]23Cc4cnn(-c5ccc(F)cc5)c4C=C2CCN(S(=O)(=O)c2cccc(S(C)(=O)=O)c2)C3)c1 [Example 11AP, (R)-(1-(4-fluorophenyl)-6-((3-(methylsulfonyl)phenyl)sulfonyl)-4,4a,5,6,7,8-hexahydro-1H-pyrazolo[3,4-g]isoquinolin-4a-yl)(4-methylpyridin-2-yl)methanone] | < 0.5 | < 20 | – | –

Now from value to compound, other results behind:

Ki (human recombinant GR; [2]) [nM] | SMILES | Ki [1, 3] [nM] | Ki (human recombinant GR) [nM] | Ki [1] [nM]
< 0.5 | O=C(c1cscn1)[C@]12Cc3cnn(-c4ccc(F)cc4)c3C=C1CCN(S(=O)(=O)c1ccc(Cl)c(Cl)c1)C2 [Example 19, (R)-(6-((3,4-dichlorophenyl)sulfonyl)-1-(4-fluorophenyl)-4,4a,5,6,7,8-hexahydro-1H-pyrazolo[3,4-g]isoquinolin-4a-yl)(thiazol-4-yl)methanone] | < 20 | – | –
< 0.5 | CCCn1cc(S(=O)(=O)N2CCC3=Cc4c(cnn4-c4ccc(F)cc4)C[C@]3(C(=O)c3ccccn3)C2)nn1 [Example 11CP, (R)-(1-(4-fluorophenyl)-6-((1-propyl-1H-1,2,3-triazol-4-yl)sulfonyl)-4,4a,5,6,7,8-hexahydro-1H-pyrazolo[3,4-g]isoquinolin-4a-yl)(pyridin-2-yl)methanone] | < 20 | – | –
< 0.5 | CCCn1ncc(S(=O)(=O)N2CCC3=Cc4c(cnn4-c4ccc(F)cc4)C[C@]3(C(=O)c3nccs3)C2)n1 (single isomer, unassigned) [Example 12AA] | 20 to 100 | – | –
0.5 to 1 | Cc1csc(C(=O)[C@]23Cc4cnn(-c5ccc(F)cc5)c4C=C2CCN(S(=O)(=O)c2cccc(C(F)(F)F)c2)C3)n1 [Example 12M, (R)-(1-(4-fluorophenyl)-6-((3-(trifluoromethyl)phenyl)sulfonyl)-4,4a,5,6,7,8-hexahydro-1H-pyrazolo[3,4-g]isoquinolin-4a-yl)(4-methylthiazol-2-yl)methanone] | 20 to 100 | – | –
< 0.5 | CCCn1ncc(S(=O)(=O)N2CCC3=Cc4c(cnn4-c4ccc(F)cc4)C[C@]3(C(=O)c3ccccn3)C2)n1 [Example 11CN, (R)-(1-(4-fluorophenyl)-6-((2-propyl-2H-1,2,3-triazol-4-yl)sulfonyl)-4,4a,5,6,7,8-hexahydro-1H-pyrazolo[3,4-g]isoquinolin-4a-yl)(pyridin-2-yl)methanone] | < 20 | – | –
< 0.5 | Cc1cc(C)cc(S(=O)(=O)N2CCC3=Cc4c(cnn4-c4ccc(F)cc4)C[C@]3(C(=O)c3ccccn3)C2)c1 [Example 11N, (R)-(6-((3,5-dimethylphenyl)sulfonyl)-1-(4-fluorophenyl)-4,4a,5,6,7,8-hexahydro-1H-pyrazolo[3,4-g]isoquinolin-4a-yl)(pyridin-2-yl)methanone] | < 20 | – | –
> 1 | Cn1nncc1S(=O)(=O)N1CCC2=Cc3c(cnn3-c3ccc(F)cc3)C[C@]2(C(=O)c2cc(C(F)(F)F)ccn2)C1 [Example 11CF, (R)-(1-(4-fluorophenyl)-6-((1-methyl-1H-1,2,3-triazol-5-yl)sulfonyl)-4,4a,5,6,7,8-hexahydro-1H-pyrazolo[3,4-g]isoquinolin-4a-yl)(4-(trifluoromethyl)pyridin-2-yl)methanone] | 20 to 100 | – | –
0.5 to 1 | CCCn1nncc1S(=O)(=O)N1CCC2=Cc3c(cnn3-c3ccc(F)cc3)C[C@]2(C(=O)c2cscn2)C1 [Example 11CR, (R)-(1-(4-fluorophenyl)-6-((1-propyl-1H-1,2,3-triazol-5-yl)sulfonyl)-4,4a,5,6,7,8-hexahydro-1H-pyrazolo[3,4-g]isoquinolin-4a-yl)(thiazol-4-yl)methanone] | 20 to 100 | – | –
